According to US11254668B2, “Pyrazolo[1,5-A]pyrazin-4-yl and related derivatives” (Pfizer Inc., priority 2017, dated 2022):

Key:
Type in all cases: biochemical
TYK2 = TYK2 (Homo sapiens (Human), UniProt P29597); assay: JAK Caliper Enzyme Assay at 1 mM ATP, TYK2
Method in brief: (§1)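 Peptide phosphorylation by recombinant human kinase domain, 1 mM ATP, room temperature, EDTA-terminated, detected by microfluidic mobility shift; % effect normalised to DMSO baseline.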

JAK1 = JAK1 (Homo sapiens (Human), UniProt P23458); assay: JAK Caliper Enzyme Assay at 1 mM ATP, JAK1
Method in brief: (§2)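 Recombinant human kinase domains phosphorylate a fluorescent synthetic peptide at 1 mM ATP, room temperature, with enzyme and time tuned for 20-30% conversion; EDTA-stopped. Product/substrate separated by microfluidic mobility shift; percent effect versus DMSO and positive controls fitted to IC50 (nM).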

JAK2 = JAK2 (Homo sapiens (Human), UniProt O60674); assay: JAK Caliper Enzyme Assay at 1 mM ATP, JAK2
Method in brief: as §1

JAK3 = JAK3 (Homo sapiens (Human), UniProt P52333); assay: JAK Caliper Enzyme Assay at 1 mM ATP, JAK3
Method in brief: as §2

Chain of JAK3 (P52333 822-1111): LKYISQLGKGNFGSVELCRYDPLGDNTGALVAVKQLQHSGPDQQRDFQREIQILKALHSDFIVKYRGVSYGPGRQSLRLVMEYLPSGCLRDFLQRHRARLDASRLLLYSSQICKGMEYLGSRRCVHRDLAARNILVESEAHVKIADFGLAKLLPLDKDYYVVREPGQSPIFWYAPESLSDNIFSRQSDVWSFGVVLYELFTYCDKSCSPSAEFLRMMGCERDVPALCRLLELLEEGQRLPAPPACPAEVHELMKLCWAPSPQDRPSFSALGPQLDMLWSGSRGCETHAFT
Chain of TYK2 (P29597 897-1176): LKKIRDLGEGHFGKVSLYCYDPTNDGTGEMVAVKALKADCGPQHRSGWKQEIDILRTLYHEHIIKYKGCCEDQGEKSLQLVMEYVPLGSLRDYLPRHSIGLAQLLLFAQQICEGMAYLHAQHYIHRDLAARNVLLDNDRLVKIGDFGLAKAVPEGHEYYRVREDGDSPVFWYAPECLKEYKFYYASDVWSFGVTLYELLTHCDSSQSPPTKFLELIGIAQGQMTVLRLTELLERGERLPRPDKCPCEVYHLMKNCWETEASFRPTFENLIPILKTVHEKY
Chain of JAK2 (O60674 849-1124): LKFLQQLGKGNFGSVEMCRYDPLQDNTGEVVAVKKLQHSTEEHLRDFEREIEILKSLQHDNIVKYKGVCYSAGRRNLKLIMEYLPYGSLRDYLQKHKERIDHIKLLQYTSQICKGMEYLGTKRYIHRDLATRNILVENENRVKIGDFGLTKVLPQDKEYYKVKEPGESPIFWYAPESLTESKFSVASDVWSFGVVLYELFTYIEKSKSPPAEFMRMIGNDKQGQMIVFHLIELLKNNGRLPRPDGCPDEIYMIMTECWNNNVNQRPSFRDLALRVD
Chain of JAK1 (P23458 875-1153): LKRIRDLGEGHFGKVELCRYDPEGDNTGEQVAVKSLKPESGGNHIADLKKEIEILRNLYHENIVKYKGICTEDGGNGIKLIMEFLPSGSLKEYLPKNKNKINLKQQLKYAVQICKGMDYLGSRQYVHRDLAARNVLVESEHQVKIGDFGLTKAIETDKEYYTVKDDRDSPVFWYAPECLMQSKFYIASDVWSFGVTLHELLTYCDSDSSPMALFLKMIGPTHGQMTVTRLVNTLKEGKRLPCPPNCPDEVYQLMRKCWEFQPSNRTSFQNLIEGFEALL

SMILES | IC50 (TYK2) [nM] | IC50 (JAK1) [nM] | IC50 (JAK2) [nM] | IC50 (JAK3) [nM]
Cc1n[nH]cc1-c1cc2ncccc2c(-c2ccn([C@]3(CC#N)C[C@@H](C#N)C3)n2)n1 [Example 89, trans-3-(cyanomethyl)-3-{3-[7-(3-methyl-1H-pyrazol-4-yl)-1,6-naphthyridin-5-yl]-1H-pyrazol-1-yl}cyclobutanecarbonitrile] | 89 | 1320 | 770 | > 10000
Cc1n[nH]cc1-c1cc2ncccc2c(-c2ccn([C@]3(CC#N)C[C@H](C#N)C3)n2)n1 [Example 90, cis-3-(cyanomethyl)-3-{3-[7-(3-methyl-1H-pyrazol-4-yl)-1,6-naphthyridin-5-yl]-1H-pyrazol-1-yl}cyclobutanecarbonitrile] | 32 | 269 | 126 | > 10000
N#CC[C@]1(n2ccc(-c3nc(-c4cn[nH]c4CO)cc4ncccc34)n2)C[C@H](C#N)C1 [Example 91, trans-3-(cyanomethyl)-3-(3-{7-[5-(hydroxymethyl)-1H-pyrazol-4-yl]-1,6-naphthyridin-5-yl}-1H-pyrazol-1-yl)cyclobutanecarbonitrile] | 34 | 562 | 160 | > 10000
N#CC[C@]1(n2ccc(-c3nc(-c4cn[nH]c4CO)cc4ncccc34)n2)C[C@@H](C#N)C1 [Example 92, cis-3-(cyanomethyl)-3-(3-{7-[5-(hydroxymethyl)-1H-pyrazol-4-yl]-1,6-naphthyridin-5-yl}-1H-pyrazol-1-yl)cyclobutanecarbonitrile] | 9 | 63 | 22 | 1850
CS(=O)(=O)N1CC(CC#N)(n2ccc(-c3nc(-c4c[nH]nc4N)cc4ncccc34)n2)C1 [Example 93, [3-{3-[7-(3-amino-1H-pyrazol-4-yl)-1,6-naphthyridin-5-yl]-1H-pyrazol-1-yl}-1-(methylsulfonyl)azetidin-3-yl]acetonitrile] | 7 | 121 | 46 | 5060
CCN1CC(CC#N)(n2ccc(-c3nc(-c4c[nH]nc4N)cc4ncccc34)n2)C1 [Example 94, (3-{3-[7-(3-amino-1H-pyrazol-4-yl)-1,6-naphthyridin-5-yl]-1H-pyrazol-1-yl}-1-ethylazetidin-3-yl)acetonitrile] | 94 | 2100 | 940 | > 10000
CO[C@H]1C[C@](CC#N)(n2ccc(-c3nc(-c4c[nH]nc4N)cc4ncccc34)n2)C1 [Example 95, (trans-1-{3-[7-(3-amino-1H-pyrazol-4-yl)-1,6-naphthyridin-5-yl]-1H-pyrazol-1-yl}-3-methoxycyclobutyl)acetonitrile] | 22 | 1010 | 354 | > 10000
CO[C@H]1C[C@](CC#N)(n2ccc(-c3nc(-c4c[nH]nc4N)cc4ncccc34)n2)C1 [Example 96, (cis-1-{3-[7-(3-amino-1H-pyrazol-4-yl)-1,6-naphthyridin-5-yl]-1H-pyrazol-1-yl}-3-methoxycyclobutyl)acetonitrile] | 31 | 790 | 243 | > 10000
N#CC[C@]1(n2ccc(-c3nc(-c4c[nH]nc4N)cc4ncccc34)n2)C[C@@H](C#N)C1 [Example 97, cis-3-{3-[7-(3-amino-1H-pyrazol-4-yl)-1,6-naphthyridin-5-yl]-1H-pyrazol-1-yl}-3-(cyanomethyl)cyclobutanecarbonitrile] | 5 | 12 | 6 | 735
N#CC[C@]1(n2ccc(-c3nc(-c4c[nH]nc4N)cc4ncccc34)n2)C[C@H](C#N)C1 [Example 98, trans-3-{3-[7-(3-amino-1H-pyrazol-4-yl)-1,6-naphthyridin-5-yl]-1H-pyrazol-1-yl}-3-(cyanomethyl)cyclobutanecarbonitrile] | 8 | 73 | 33 | 5250
Cn1cc(-c2cc3ncccc3c(-c3ccn(C4(CC#N)CN(CC(F)(F)F)C4)n3)n2)cn1 [Example 99, [3-{3-[7-(1-methyl-1H-pyrazol-4-yl)-1,6-naphthyridin-5-yl]-1H-pyrazol-1-yl}-1-(2,2,2-trifluoroethyl)azetidin-3-yl]acetonitrile] | 16 | 563 | 133 | > 10000
Cn1cc(-c2cc3ncccc3c(-c3ccn(C4(CC#N)CN(CC#N)C4)n3)n2)cn1 [Example 100, 2,2′-(3-{3-[7-(1-methyl-1H-pyrazol-4-yl)-1,6-naphthyridin-5-yl]-1H-pyrazol-1-yl}azetidine-1,3-diyl)diacetonitrile] | 14 | 425 | 71 | > 10000
Cn1cc(-c2cc3ncccc3c(-c3ccn([C@]4(CC#N)C[C@@H](C#N)C4)n3)n2)cn1 [Example 102, trans-3-(cyanomethyl)-3-{3-[7-(1-methyl-1H-pyrazol-4-yl)-1,6-naphthyridin-5-yl]-1H-pyrazol-1-yl}cyclobutanecarbonitrile] | 17 | 591 | 90 | 9610
Cn1cc(-c2cc3ncccc3c(-c3ccn(C4(CC#N)CN(S(C)(=O)=O)C4)n3)n2)cn1 [Example 104, [3-{3-[7-(1-methyl-1H-pyrazol-4-yl)-1,6-naphthyridin-5-yl]-1H-pyrazol-1-yl}-1-(methylsulfonyl)azetidin-3-yl]acetonitrile] | 19 | 1380 | 164 | > 10000
CCS(=O)(=O)N1CC(CC#N)(n2ccc(-c3nc(-c4cnn(C)c4)cc4ncccc34)n2)C1 [Example 105, [1-(ethylsulfonyl)-3-{3-[7-(1-methyl-1H-pyrazol-4-yl)-1,6-naphthyridin-5-yl]-1H-pyrazol-1-yl}azetidin-3-yl]acetonitrile] | 39 | 1350 | 174 | 8090
CCCS(=O)(=O)N1CC(CC#N)(n2ccc(-c3nc(-c4cnn(C)c4)cc4ncccc34)n2)C1 [Example 106, [3-{3-[7-(1-methyl-1H-pyrazol-4-yl)-1,6-naphthyridin-5-yl]-1H-pyrazol-1-yl}-1-(propylsulfonyl)azetidin-3-yl]acetonitrile] | 138 | 5400 | 895 | > 10000
Cn1cc(-c2cc3ncccc3c(-c3ccn(C4(CC#N)CN(S(=O)(=O)C5CC5)C4)n3)n2)cn1 [Example 107, [1-(cyclopropylsulfonyl)-3-{3-[7-(1-methyl-1H-pyrazol-4-yl)-1,6-naphthyridin-5-yl]-1H-pyrazol-1-yl}azetidin-3-yl]acetonitrile] | 24 | 1010 | 243 | > 10000
Cn1cc(-c2cc3ncccc3c(-c3ccn(C4(CC#N)CN(S(N)(=O)=O)C4)n3)n2)cn1 [Example 108, 3-(cyanomethyl)-3-{3-[7-(1-methyl-1H-pyrazol-4-yl)-1,6-naphthyridin-5-yl]-1H-pyrazol-1-yl}azetidine-1-sulfonamide] | 16 | 311 | 50 | 1590
CNS(=O)(=O)N1CC(CC#N)(n2ccc(-c3nc(-c4cnn(C)c4)cc4ncccc34)n2)C1 [Example 109, 3-(cyanomethyl)-N-methyl-3-{3-[7-(1-methyl-1H-pyrazol-4-yl)-1,6-naphthyridin-5-yl]-1H-pyrazol-1-yl}azetidine-1-sulfonamide] | 68 | 2370 | 378 | > 10000
CO[C@H]1C[C@@](CC#N)(n2ccc(-c3nc(-c4cnn(C)c4)cc4ncccc34)n2)C1 [Example 110, (cis-3-methoxy-1-{3-[7-(1-methyl-1H-pyrazol-4-yl)-1,6-naphthyridin-5-yl]-1H-pyrazol-1-yl}cyclobutyl)acetonitrile] | 61 | 4110 | 558 | > 10000
CCn1cc(-c2cc3ncccc3c(-c3ccn(C4(CC#N)CN(CC(F)(F)F)C4)n3)n2)cn1 [Example 111, [3-{3-[7-(1-ethyl-1H-pyrazol-4-yl)-1,6-naphthyridin-5-yl]-1H-pyrazol-1-yl}-1-(2,2,2-trifluoroethyl)azetidin-3-yl]acetonitrile] | 27 | 458 | 139 | 9060
CN(C)CCn1cc(-c2cc3ncccc3c(-c3ccn([C@]4(CC#N)C[C@H](C#N)C4)n3)n2)cn1 [Example 114, cis-3-(cyanomethyl)-3-[3-(7-{1-[2-(dimethylamino)ethyl]-1H-pyrazol-4-yl}-1,6-naphthyridin-5-yl)-1H-pyrazol-1-yl]cyclobutanecarbonitrile] | 46 | 404 | 41 | 1170
N#CCC1(n2ccc(-c3nc(-c4cnn(C5CNC5)c4)cc4ncccc34)n2)CN(CC(F)(F)F)C1 [Example 115, [3-(3-{7-[1-(azetidin-3-yl)-1H-pyrazol-4-yl]-1,6-naphthyridin-5-yl}-1H-pyrazol-1-yl)-1-(2,2,2-trifluoroethyl)azetidin-3-yl]acetonitrile] | 120 | 7060 | 327 | > 10000
N#CCC1(n2ccc(-c3nc(-c4cnn(C5CCNCC5)c4)cc4ncccc34)n2)CN(CC(F)(F)F)C1 [Example 116, [3-(3-{7-[1-(piperidin-4-yl)-1H-pyrazol-4-yl]-1,6-naphthyridin-5-yl}-1H-pyrazol-1-yl)-1-(2,2,2-trifluoroethyl)azetidin-3-yl]acetonitrile] | 41 | 1040 | 54 | 4420
